{"source": "patent EP0091995B1", "about": "“New compound having antiinflammatory, analgesic and mucoregulating activity, process for its production and relative pharmaceutical compositions” (AUSONIA FARMACEUTICI S.r.l., priority 1982, dated 1983)", "key": {"[1]": {"test": "Acute toxicity (method of Litchfield and Wilcoxon)", "settings": "in vivo, oral, os", "source_text": "The acute toxicity has been determined in Swiss mouse and in Wistar rat for different administration routes, according to the method of Litchfield J.T. and Wilcoxon [J. Pharm. Exp. Therap. 96, 99-113, (1949)].\nThe results obtained are reported in the following Table I; from the same it can be pointed out how AFP is endowed with a very low acute toxicity."}, "rabbits": {"test_system": "rabbits", "test": "Anti-cough activity, cough induced by citric acid aerosol", "settings": "mean number of cough strokes; endoperitoneal route; Codeine 12.5 mg/kg, AFP-695 150 mg/kg"}, "rat": {"test_system": "rat", "test": "Antiinflammatory activity, subplantar edema by carrageenin", "settings": "Ibuprofen 100 mg/kg os, AFP-695 150 mg/kg os", "procedure": "Tests have been performed on the rat, employing the test of the subplantar edema induced by carrageenin. […] After edema induction, the animals of each group have been controlled, every 60 minutes for 5 consecutive hours, in order to point out the evolution of the inflammatory process."}, "[2]": {"test": "Solubility of the product of the Example", "type": "physicochemical", "source_text": "Its structure is confirmed by analytical and spectroscopical data. • Elemental analysis: • for C23H3403(M.W. = 358.49) • calcd. % C = 77.05; H = 9.56 • found % C = 76.88; H = 9.60. • I.R. Spectrum • (liquid film; absorption band values are expressed in cm^-1): • stretch 0-H 3400-3250 • stretch C=O 1735 • stretch C-0 1205 • H^1 NMR Spectrum • (recorded in CDCI3, internal reference TMS; values of the chemical shifts are expressed in δ): • 0.65-1.2(m, 12H, -CH(CH3)2, C(CH3)2); • 1.3-2 (m, 12H, CH2―CH―CH2, CH2-CH, CH3-CH, OH mobile); • 2.3 (d, 3H, =C-CH3); • 3.5 (q, 1 H, CH3-CH-CO); • 4.7-5 (m, 1H,―CH―O―CO); • 5.3-5.6 (m, 1H, =CH-CH2); • 6.6-7 (m, 4H, aromatics)."}, "mouse": {"test_system": "mouse", "test": "Analgesic activity, writhings by phenylquinone", "type": "in vivo", "settings": "100 mg/kg os", "method": "The test of writhings by phenylquinone in the mouse has been used.\nThe two drugs have been administered per os 30 minutes […] intraperitoneal injection of phenylquinone."}, "Sprague-Dawley rats": {"test_system": "Sprague-Dawley rats", "test": "Antiinflammatory activity, pleuritis by carrageenin (method of Vinegar)", "type": "in vivo", "settings": "oral route"}, "Rats": {"test_system": "Rats", "test": "Gastrolesive action (gastric mucosa examination)", "type": "in vivo", "settings": "rats fasting 18 hours; 5 hours 30 minutes after treatment; Ibuprofen 100 mg/kg/os, AFP-695 150 mg/kg/os", "method": "5 Hours and 30 minutes after treatments, the animals have been sacrificed and the stomach has been withdrawn for gastric mucosa examination."}, "[3]": {"test": "Pharmacokinetics, plasma and lung levels by gas chromatography", "type": "in vivo, rats", "settings": "100 mg/kg per os; at 30 minutes, and in some instance also at 1 hour", "method": "At the moment of treatment rats were fasting since 18 hours. Rats have been then sacrificed in groups of 4 at different times: 30 min., 1 h, 2 h, 4 h, 6 h.\nThe concentration both of unchanged products and of their metabolites have been measured by gas chromatography in plasma and in the lung."}, "male rabbit": {"test_system": "male rabbit", "test": "Mucosecretolytic activity (technique of Giraldez et al)", "type": "in vivo", "settings": "500 mg/kg/os", "source_text": "The mucosecretolytic activity has been studied in the male rabbit according to the technique of Giraldez, Grass and Bruseghini(Abstr. Comp. Int. Pharm. N. 1086-Paris 1978), by administration by the oral route, comparing AFP-695 with carboxymethylcysteine and sobrerol at the dose hereinafter stated."}, "male Wistar rat": {"test_system": "male Wistar rat", "test": "Bronchosecretogogue activity (Mawatari technique)", "type": "in vivo", "settings": "500 mg/kg/os; FlNa = Sodium fluoresceine", "source_text": "The bronchosecretogogue activity has been determined in male Wistar rat by per os administration according to the method of Mawatari [Mawatari H., Kagoshima Daigaku Igaku-Zasshi, 27, 561 (1976)], comparing AFP-695 with carboxymethylcysteine and sobrerol at the doses hereinafter stated."}}}
{"smiles": "CC1=CCC(C(C)(C)O)CC1OC(=O)C(C)c1ccc(CC(C)C)cc1", "note": "(stereo not drawn) [AFP-695, 2-methyl-5-(1-hydroxy-1-methylethyl)-cyclohex-2-enyl 2-(4-isobutylphenyl)propionate]", "values": [{"measurement": "LD50", "setting": "[1]; Swiss, mouse", "value": 1800, "unit": "mg/kg"}, {"measurement": "LD50", "setting": "[1]; Wistar, rat", "value": 2200, "unit": "mg/kg"}, {"measurement": "% Inhibition in comparison with controls", "setting": "rabbits", "value": 78.1, "unit": "%"}, {"measurement": "AREA % Inhibition in comparison with controls", "setting": "rat", "value": 42.8, "unit": "%"}, {"measurement": "AREA Absolute value", "setting": "rat; area of limb volume over 0-5 hours", "value": 156.2}, {"measurement": "MEAN LIMB VOLUME AT DIFFERENT HOURS AFTER TREATMENT 0", "setting": "rat; hour 0, 30 minutes before carrageenin", "value": 22.8}, {"measurement": "MEAN LIMB VOLUME AT DIFFERENT HOURS AFTER TREATMENT 1", "setting": "rat; hour 1", "value": 27.2}, {"measurement": "MEAN LIMB VOLUME AT DIFFERENT HOURS AFTER TREATMENT 2", "setting": "rat; hour 2", "value": 29.6}, {"measurement": "MEAN LIMB VOLUME AT DIFFERENT HOURS AFTER TREATMENT 3", "setting": "rat; hour 3", "value": 31.4}, {"measurement": "MEAN LIMB VOLUME AT DIFFERENT HOURS AFTER TREATMENT 4", "setting": "rat; hour 4", "value": 32.6}, {"measurement": "MEAN LIMB VOLUME AT DIFFERENT HOURS AFTER TREATMENT 5", "setting": "rat; hour 5", "value": 34.9}, {"measurement": "solubility in the common organic solvents", "setting": "[2]; common organic solvents", "value": "easily soluble in the common organic solvents"}, {"measurement": "solubility in water", "setting": "[2]; water", "value": "substantially insoluble in water"}, {"measurement": "% Inhibition in comparison with controls", "setting": "mouse", "value": 71.09, "unit": "%"}, {"measurement": "Mean No. of writhings", "setting": "mouse", "value": "3.7 ± 1.2"}, {"measurement": "No. animals with writhings", "setting": "mouse", "value": "3/10"}, {"measurement": "decrease of leucocytes number", "setting": "Sprague-Dawley rats; 24th hour, equiponderant doses", "value": 60.89, "unit": "%"}, {"measurement": "decrease of the exudate volume, in comparison with control", "setting": "Sprague-Dawley rats; 24th hour, equiponderant doses", "value": 51.02, "unit": "%"}, {"measurement": "decrease of the number of leucocytes", "setting": "Sprague-Dawley rats; fifth hour after treatment", "value": 70.91, "unit": "%"}, {"measurement": "decrease of the exudate", "setting": "Sprague-Dawley rats; fifth hour after treatment, 30 minutes before intrapleural injection", "value": 41.84, "unit": "%"}, {"measurement": "Mean ulcers size", "setting": "Rats", "value": "0.9 ± 0.3", "unit": "mm"}, {"measurement": "unchanged AFP-695 in plasma", "setting": "[3]", "value": "has been found in plasma"}, {"measurement": "% Increase of secretion in comparison with controls", "setting": "male rabbit", "value": 35.7, "unit": "%"}, {"measurement": "% Increase of FlNa(*) in comparison with controls", "setting": "male Wistar rat", "value": 51.6, "unit": "%"}]}
{"smiles": "COc1ccc2c3c1O[C@H]1[C@@H](O)C=C[C@H]4[C@@H](C2)N(C)CC[C@@]341", "note": "[Codeine, codeine, reference compound]", "values": [{"measurement": "% Inhibition in comparison with controls", "setting": "rabbits", "value": 76.7, "unit": "%"}]}
{"smiles": "CC(C)Cc1ccc(C(C)C(=O)O)cc1", "note": "(stereo not drawn) [Ibuprofen, 2-(4-isobutylphenyl)-propionic acid, reference compound]", "values": [{"measurement": "AREA % Inhibition in comparison with controls", "setting": "rat", "value": 44.2, "unit": "%"}, {"measurement": "% Inhibition in comparison with controls", "setting": "mouse", "value": 89.84, "unit": "%"}, {"measurement": "Mean No. of writhings", "setting": "mouse", "value": "1.3 ± 0.5"}, {"measurement": "No. animals with writhings", "setting": "mouse", "value": "1/10"}, {"measurement": "decrease of leucocytes number", "setting": "Sprague-Dawley rats; 24th hour, equiponderant doses", "value": 5.58, "unit": "%"}, {"measurement": "Mean ulcers size", "setting": "Rats", "value": "9.6 ± 1.8", "unit": "mm"}]}
{"smiles": "CC1=CCC(C(C)(C)O)CC1O", "note": "(stereo not drawn) [Sobrerol, 2-methyl-5-(1-hydroxy-1-methyl-ethyl)-2-cyclohexen-1-ol, reference compound]", "values": [{"measurement": "% Increase of secretion in comparison with controls", "setting": "male rabbit", "value": 36.8, "unit": "%"}, {"measurement": "% Increase of FlNa(*) in comparison with controls", "setting": "male Wistar rat", "value": 33.4, "unit": "%"}]}
